Test results from the NIST ThermoML archive (doi:10.1016/j.tca.2006.04.004).
± gives the expanded uncertainty stated by the source.

Tests used:
[1] = mn = molality of the nth substance listed, in mol/kg; details: 101 kPa, Liquid, Pycnometric method, m1 = 1.5
[2] = 101.33 kPa, Liquid, Pycnometric method

Row | mass density ([2]; 308.15 K) | mass density ([2]; 318.15 K) | mass density ([2]; 323.15 K) | Compound | mass density ([1]; 298.15 K) | mass density ([1]; 303.15 K) | mass density ([1]; 308.15 K) | mass density ([1]; 313.15 K) | mass density ([1]; 318.15 K) | mass density ([1]; 323.15 K)
1 |  |  |  | [Cl-].[Na+] [sodium chloride] + O | 1058.8 ± 0.6 kg/m3 | 1056.1 ± 0.6 kg/m3 | 1053.8 ± 0.6 kg/m3 | 1051.4 ± 0.6 kg/m3 | 1048.8 ± 0.6 kg/m3 | 1046.2 ± 0.6 kg/m3
2 | 994.2 ± 0.5 kg/m3 | 990.3 ± 0.5 kg/m3 | 987.9 ± 0.5 kg/m3 | O [water] |  |  |  |  |  | 
3 |  |  |  | O=[N+]([O-])[O-].[K+] [potassium nitrate] + O | 1086.9 ± 0.6 kg/m3 | 1085 ± 0.6 kg/m3 | 1083 ± 0.6 kg/m3 | 1080.6 ± 0.6 kg/m3 | 1077.9 ± 0.6 kg/m3 | 1075 ± 0.6 kg/m3
4 |  |  |  | O=[N+]([O-])[O-].[Na+] [sodium nitrate] + O | 1079.1 ± 0.6 kg/m3 | 1076.5 ± 0.6 kg/m3 | 1073.5 ± 0.6 kg/m3 | 1070.3 ± 0.6 kg/m3 | 1067 ± 0.6 kg/m3 | 1063.7 ± 0.6 kg/m3
